What was measured:
Format in all cases: functional, cell-based
HepG2 = assay: Cytotoxicity against human HepG2 cells assessed as inhibition of cell viability incubated for 72 hrs by CCK8 assay; details: HepG2, 72 h
RAW264.7 = assay: Cytotoxicity against mouse RAW264.7 cells assessed as inhibition of cell viability incubated for 72 hrs by CCK8 assay; details: RAW264.7, 72 h
CTLL-2 = assay: Cytotoxicity against mouse CTLL-2 cells assessed as inhibition of cell viability incubated for 72 hrs by CCK8 assay; details: CTLL-2, 72 h
THP-1 = assay: Cytotoxicity against human THP-1 cells assessed as inhibition of cell viability incubated for 72 hrs by CCK8 assay; details: THP-1, 72 h
HL-60 = assay: Cytotoxicity against human HL-60 cells assessed as inhibition of cell viability incubated for 72 hrs by CCK8 assay; details: HL-60, 72 h
IEC-6 = assay: Cytotoxicity against rat IEC-6 cells assessed as inhibition of cell viability incubated for 72 hrs by CCK8 assay; details: IEC-6, 72 h
NRK-52E = assay: Cytotoxicity against rat NRK-52E cells assessed as inhibition of cell viability incubated for 72 hrs by CCK8 assay

## C/C=C/C[C@@H](C)[C@@H](O)[C@H]1C(=O)N[C@@H](CC)C(=O)N(C)CC(=O)N(C)[C@@H](CC(C)C)C(=O)N[C@@H](C(C)C)C(=O)N(C)[C@@H](CC(C)C)C(=O)N[C@@H](C)C(=O)N[C@H](C)C(=O)N(C)[C@@H](CC(C)C)C(=O)N(C)[C@@H](CC(C)C)C(=O)N(C)[C@@H](C(C)C)C(=O)N1C [CYCLOSPORINE]
HepG2
  IC50: 11.7 µM
RAW264.7
  IC50: 14.2 µM
CTLL-2
  IC50: 2.72 µM
THP-1
  IC50: 4.36 µM
HL-60
  IC50: 8.14 µM
IEC-6
  IC50: 9.14 µM
NRK-52E
  IC50: 35.4 µM
